In brackets after ≈: the same amount, converted by molar mass. Activity calls are given as the source filed them. The calls are words filed in the database; no cut-off is given here.
Experiments:
Pseudomonas aeruginosa [1] = experiment: In vitro minimum inhibitory concentration against Pseudomonas aeruginosa (ATCC 27853); type: functional
Enterococcus faecalis [2] = experiment: In vitro minimum inhibitory concentration against Enterococcus faecalis (ATCC 29212 and 21777); type: functional
Staphylococcus aureus [3] = experiment: In vitro minimum inhibitory concentration against methicillin-resistant Staphylococcus aureus (ST450, ATCC 15187, ICH 1 and 37); type: functional
Enterococcus faecium [4] = experiment: In vitro minimum inhibitory concentration against Enterococcus faecium (6A-VRE); type: functional
[5] = tested on: Staphylococcus epidermidis; experiment: In vitro minimum inhibitory concentration against methicillin-resistant Staphylococcus epidermidis (ATCC 23760); type: functional
Enterococcus faecalis [6] = experiment: In vitro minimum inhibitory concentration against Enterococcus faecalis [(VRE) ATCC 346-VRE and 5B-VRE]; type: functional
Escherichia coli [7] = experiment: In vitro minimum inhibitory concentration against Escherichia coli (ATCC 25922); type: functional
Staphylococcus aureus [8] = experiment: In vitro minimum inhibitory concentration against Staphylococcus aureus (ATCC 25923 and 29213); type: functional
[9] = tested on: Staphylococcus saprophyticus; experiment: In vitro minimum inhibitory concentration against Staphylococcus saprophyticus (ATCC 15305); type: functional
[10] = tested on: Staphylococcus epidermidis; experiment: In vitro minimum inhibitory concentration against Staphylococcus epidermidis (ATCC 12228); type: functional
Staphylococcus aureus [11] = experiment: In vitro minimum inhibitory concentration against methicillin-resistant Staphylococcus aureus (ST450, ATCC 15187, ICH 1 and 37); Range= 0.125-0.25 ug/mL; type: functional
Enterococcus faecalis [12] = experiment: In vitro minimum inhibitory concentration against Enterococcus faecalis [(VRE) ATCC 346-VRE and 5B-VRE]; Range= 0.125-0.25 ug/mL; type: functional
[13] = tested on: Staphylococcus epidermidis; experiment: In vitro minimum inhibitory concentration against Staphylococcus epidermidis (ATCC 12228); Range= 0.125-0.25 ug/mL; type: functional
[14] = tested on: Staphylococcus epidermidis; experiment: In vitro minimum inhibitory concentration against Staphylococcus epidermidis (ATCC 12228); NA= Not active in preliminary screening up to 50 ug/mL; type: functional, organism-based
Pseudomonas aeruginosa [15] = experiment: In vitro minimum inhibitory concentration against Pseudomonas aeruginosa (ATCC 27853); NA= Not active in preliminary screening up to 50 ug/mL; type: functional, organism-based
[16] = tested on: Salmonella enterica subsp. enterica serovar Abony; experiment: In vitro minimum inhibitory concentration against Salmonella abony (NCTC 6017); NA= Not active in preliminary screening up to 50 ug/mL; type: functional, organism-based
Enterococcus faecium [17] = experiment: In vitro minimum inhibitory concentration against Enterococcus faecium (6A-VRE); NA= Not active in preliminary screening up to 50 ug/mL; type: functional, organism-based
Bacillus pumilus [18] = experiment: In vitro minimum inhibitory concentration against Bacillus pumilus (ATCC 14884); NA= Not active in preliminary screening up to 50 ug/mL; type: functional, organism-based
Enterococcus faecalis [19] = experiment: In vitro minimum inhibitory concentration against Enterococcus faecalis [(VRE) ATCC 346-VRE and 5B-VRE]; NA= Not active in preliminary screening up to 50 ug/mL; type: functional, organism-based
Staphylococcus aureus [20] = experiment: In vitro minimum inhibitory concentration against methicillin-resistant Staphylococcus aureus (ST450, ATCC 15187, ICH 1 and 37); NA= Not active in preliminary screening up to 50 ug/mL; type: functional, organism-based
[21] = tested on: Staphylococcus saprophyticus; experiment: In vitro minimum inhibitory concentration against Staphylococcus saprophyticus (ATCC 15305); NA= Not active in preliminary screening up to 50 ug/mL; type: functional, organism-based
[22] = tested on: Staphylococcus epidermidis; experiment: In vitro minimum inhibitory concentration against methicillin-resistant Staphylococcus epidermidis (ATCC 23760); NA= Not active in preliminary screening up to 50 ug/mL; type: functional, organism-based
Enterococcus faecalis [23] = experiment: In vitro minimum inhibitory concentration against Enterococcus faecalis (ATCC 29212 and 21777); NA= Not active in preliminary screening up to 50 ug/mL; type: functional, organism-based
Staphylococcus aureus [24] = experiment: In vitro minimum inhibitory concentration against Staphylococcus aureus (ATCC 25923 and 29213); NA= Not active in preliminary screening up to 50 ug/mL; type: functional, organism-based
Escherichia coli [25] = experiment: In vitro minimum inhibitory concentration against Escherichia coli (ATCC 25922); NA= Not active in preliminary screening up to 50 ug/mL; type: functional, organism-based
[26] = tested on: Salmonella enterica subsp. enterica serovar Abony; experiment: In vitro minimum inhibitory concentration against Salmonella abony (NCTC 6017); type: functional
Bacillus pumilus [27] = experiment: In vitro minimum inhibitory concentration against Bacillus pumilus (ATCC 14884); type: functional
Staphylococcus aureus [28] = experiment: In vitro minimum inhibitory concentration against Staphylococcus aureus (ATCC 25923 and 29213); Range 2-4 ug/mL; type: functional

| SMILES | MIC (Pseudomonas aeruginosa [1]) [mg/L] | MIC (Enterococcus faecalis [2]) [mg/L] | MIC (Staphylococcus aureus [3]) [mg/L] | MIC (Enterococcus faecium [4]) [mg/L] | MIC [5] [mg/L] | MIC (Enterococcus faecalis [6]) [mg/L] | MIC (Escherichia coli [7]) | MIC (Staphylococcus aureus [8]) [mg/L] | MIC [9] [mg/L] | MIC [10] [mg/L] | MIC [26] [mg/L] | MIC (Bacillus pumilus [27]) [mg/L] | also measured |
| --- | --- | --- | --- | --- | --- | --- | --- | --- | --- | --- | --- | --- | --- |
| COC(=O)c1ccc2c(c1)nnn2-c1ccc(N2C[C@H](C/N=C(\S)OC)OC2=O)cc1F | > 16 | 0.125 (≈ 0.272 µM) | 0.25 (≈ 0.544 µM) | 0.25 (≈ 0.544 µM) | 0.125 (≈ 0.272 µM) | 0.25 (≈ 0.544 µM) | > 16 mg/L | 0.25 (≈ 0.544 µM) | 0.25 (≈ 0.544 µM) | 0.25 (≈ 0.544 µM) |  |  |  |
| COC(=O)c1ccc2c(c1)nnn2-c1ccc(N2C[C@H](C/N=C(/N)S)OC2=O)cc1F | > 16 | 0.125 (≈ 0.281 µM) |  | 0.25 (≈ 0.562 µM) | 0.125 (≈ 0.281 µM) |  | > 16 mg/L | 0.25 (≈ 0.562 µM) | 0.25 (≈ 0.562 µM) |  |  |  | MIC (Staphylococcus aureus [11]): 0.25 mg/L (≈ 0.562 µM); MIC (Enterococcus faecalis [12]): 0.25 mg/L (≈ 0.562 µM); MIC [13]: 0.25 mg/L (≈ 0.562 µM) |
| O=C1O[C@@H](C/N=C(\S)OCC(F)(F)C(F)F)CN1c1ccc(-n2nnc3ccccc32)c(F)c1 |  |  |  |  |  |  | inactive |  |  |  |  |  | MIC [14]: inactive; MIC (Pseudomonas aeruginosa [15]): inactive; MIC [16]: inactive; MIC (Enterococcus faecium [17]): inactive; MIC (Bacillus pumilus [18]): inactive; MIC (Enterococcus faecalis [19]): inactive; MIC (Staphylococcus aureus [20]): inactive; MIC [21]: inactive; MIC [22]: inactive; MIC (Enterococcus faecalis [23]): inactive; MIC (Staphylococcus aureus [24]): inactive |
| O=C1O[C@@H](CN/C(S)=N/CCCO)CN1c1ccc(-n2nnc3ccccc32)c(F)c1 |  |  |  |  |  |  |  |  |  |  |  |  | MIC [14]: inactive; MIC (Pseudomonas aeruginosa [15]): inactive; MIC [16]: inactive; MIC (Enterococcus faecium [17]): inactive; MIC (Bacillus pumilus [18]): inactive; MIC (Escherichia coli [25]): inactive; MIC (Enterococcus faecalis [19]): inactive; MIC (Staphylococcus aureus [20]): inactive; MIC [21]: inactive; MIC [22]: inactive; MIC (Enterococcus faecalis [23]): inactive; MIC (Staphylococcus aureus [24]): inactive |
| CO/C(S)=N/C[C@H]1CN(c2ccc(-n3nnc4ccccc43)c(F)c2)C(=O)O1 | > 16 | 1 (≈ 2.49 µM) | 1 (≈ 2.49 µM) | 1 (≈ 2.49 µM) | 0.25 (≈ 0.623 µM) | 1 (≈ 2.49 µM) | > 16 mg/L | 1 (≈ 2.49 µM) |  | 0.25 (≈ 0.623 µM) | > 16 | > 16 |  |
| CN(C)CCO/C(S)=N/C[C@H]1CN(c2ccc(-n3nnc4ccccc43)c(F)c2)C(=O)O1 | > 16 | > 16 | > 16 | > 16 | > 16 | > 16 | > 16 mg/L | > 16 | > 16 | > 16 | > 16 | > 16 |  |
| CC(=O)NC[C@H]1CN(c2ccc(N3CCOCC3)c(F)c2)C(=O)O1 [LINEZOLID] | > 16 |  |  | 2 (≈ 5.93 µM) | 2 (≈ 5.93 µM) |  | > 16 mg/L |  | > 16 | 2 (≈ 5.93 µM) | > 16 |  |  |
| N=C(S)NC[C@H]1CN(c2ccc(-n3nnc4ccccc43)c(F)c2)C(=O)O1 | > 16 | 0.25 (≈ 0.647 µM) | 0.25 (≈ 0.647 µM) | 16 (≈ 41.4 µM) | 0.125 (≈ 0.323 µM) | 0.25 (≈ 0.647 µM) | > 16 mg/L | 0.25 (≈ 0.647 µM) |  | 0.25 (≈ 0.647 µM) | > 16 | 0.25 (≈ 0.647 µM) |  |
| O=C1O[C@@H](CN/C(S)=N/CCO)CN1c1ccc(-n2nnc3ccccc32)c(F)c1 | > 16 | 1 (≈ 2.32 µM) | 2 (≈ 4.65 µM) | 1 (≈ 2.32 µM) | 0.5 (≈ 1.16 µM) | 1 (≈ 2.32 µM) | > 16 mg/L |  |  | 2 (≈ 4.65 µM) | > 16 |  | MIC (Staphylococcus aureus [28]): 4 mg/L (≈ 9.29 µM) |
| O=C1O[C@@H](C/N=C(\S)OCCO)CN1c1ccc(-n2nnc3ccccc32)c(F)c1 | > 16 | > 16 | > 16 | > 16 | > 16 | > 16 | > 16 mg/L | > 16 |  | > 16 | > 16 | > 16 |  |
| O=C1O[C@@H](C/N=C(\S)OCC(F)(F)F)CN1c1ccc(-n2nnc3ccccc32)c(F)c1 |  |  |  |  |  |  |  |  |  |  |  |  | MIC [14]: inactive; MIC (Pseudomonas aeruginosa [15]): inactive; MIC [16]: inactive; MIC (Enterococcus faecium [17]): inactive; MIC (Bacillus pumilus [18]): inactive; MIC (Escherichia coli [25]): inactive; MIC (Enterococcus faecalis [19]): inactive; MIC (Staphylococcus aureus [20]): inactive; MIC [21]: inactive; MIC [22]: inactive; MIC (Enterococcus faecalis [23]): inactive; MIC (Staphylococcus aureus [24]): inactive |
| CCN(CC)CC/N=C(\S)NC[C@H]1CN(c2ccc(-n3nnc4ccccc43)c(F)c2)C(=O)O1 | > 16 | > 16 | > 16 | > 16 | > 16 | > 16 | > 16 mg/L | > 16 |  | > 16 | > 16 | > 16 |  |

Source: ChEMBL document CHEMBL1139614, “Synthesis and antibacterial activity of novel (un)substituted benzotriazolyl oxazolidinone derivatives” (2005)
